Experimental data published in ChEMBL document CHEMBL1201862, “PubChem BioAssay data set” (2004).
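Dose response: 5 concentrations. Exposure: 48 h. Format: 96-well plates. Endpoint: linear interpolation; highest concentration if not reached. GI50 marks 50% less growth.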 Activity calls are given as the source filed them. Cut-off read from the data, not from the text of the source: active = GI50 up to about 1.1 µM and inactive = higher.

Tests used:
Experiment in all cases: DTP human tumour cell line panel, 48 h
SW-620 = system: SW-620
XF498 = system: XF498
SK-MEL-2 = system: SK-MEL-2
KM-20L2 = system: KM-20L2
DMS-114 = system: DMS-114
HOP-92 = system: HOP-92
DLD-1 = system: DLD-1
MCF7 = system: MCF7
RXF 393 = system: RXF 393
M19-MEL = system: M19-MEL
SF-539 = system: SF-539

SMILES | GI50 (SW-620) | GI50 (XF498) | GI50 (SK-MEL-2) | GI50 (KM-20L2) | GI50 (DMS-114) | GI50 (HOP-92) | GI50 (DLD-1) | GI50 (MCF7) | GI50 (RXF 393) | GI50 (M19-MEL) | GI50 (SF-539)
C[C@H](CN1CC(=O)NC(=O)C1)N1CC(=O)NC(=O)C1 | > 47.3 µM (inactive) | > 100 µM (inactive) | > 10 µM (inactive) | > 87.7 µM (inactive) | 0.18 µM (active) | > 100 µM (inactive) | > 86.5 µM (inactive) | 44.2 µM (inactive) | > 100 µM (inactive) | > 100 µM (inactive) | > 100 µM (inactive)
COc1ccc2c(c1)CCCc1cn[nH]c1-2 | > 100 µM (inactive) | > 100 µM (inactive) | > 100 µM (inactive) | > 100 µM (inactive) | > 100 µM (inactive) | > 100 µM (inactive) | > 100 µM (inactive) | > 100 µM (inactive) | > 89.1 µM (inactive) | > 100 µM (inactive) | > 100 µM (inactive)
CNC(=O)SCC(NC(=O)CCC(N)C(=O)O)C(=O)NCC(=O)O (centres undefined) | > 100 µM (inactive) | > 100 µM (inactive) | > 85.7 µM (inactive) | > 100 µM (inactive) | 39 µM (inactive) | > 68.4 µM (inactive) | > 83 µM (inactive) | > 100 µM (inactive) | > 100 µM (inactive) | > 100 µM (inactive) | > 96.4 µM (inactive)
COc1cc(/C=C/C(=O)O)ccc1C(=O)O/C=C/c1ccccc1 | > 100 µM (inactive) | > 100 µM (inactive) | > 100 µM (inactive) | > 100 µM (inactive) | > 100 µM (inactive) | > 100 µM (inactive) | > 100 µM (inactive) | 73.5 µM (inactive) | > 100 µM (inactive) | > 81.7 µM (inactive) | > 100 µM (inactive)
